Results from patent publication US20090312373A1, “METHODS FOR THE TREATMENT OF CANCER USING PIPERLONGUMINE AND PIPERLONGUMINE ANALOGS” (The General Hospital Corporation, priority 2008, published 2009).

Key:
[1] = system: p53; experiment: p53 acetylation Western blot in U2OS cells; type: cell-based, human; settings: 6 hours, TSA 10 mM
Protocol: U2OS cells were treated with piperlongumine (SP), the HDAC inhibitor TSA (trichostatin A ([…])) or the control DMSO for 6 hours. Cell extracts were fractionated in SDS-PAGE gel and analyzed by western blot.

[2] = system: EJ bladder carcinoma cells; experiment: Persistent effects after removal of the compound in EJ cells; type: cell-based, human; settings: 3 hrs treatment, washed, another 6 hrs in medium without compound
Protocol: EJ bladder carcinoma cells were treated with SP2007 (P10: 10 μM and P20: 20 μM), taxol (T10: 10 nM and T20: 20 nM) or DMSO vehicle control for either 20 hrs or 3 hrs. For the 20 hrs experiment, the percentages of remaining living cells ware measured on the end of the 20 hrs treatment time point. […] For the 3 hrs experiment, cells were washed 3 times with PBS after treatment with the and incubated for another 6 hrs in growing medium without SP2007, taxol or DMSO.

[3] = system: immortalized human breast epithelial cells; experiment: DNA damage markers in immortalized human breast epithelial cells; type: cell-based; settings: taxol 10 nM
Text: (§1) The conditions and time of exposure are indicated in the legend of the figure.

[4] = system: MMTV-PyVT mammary tumor; experiment: MMTV-PyVT spontaneous mammary tumor mouse model; type: in vivo
Text: MMTV-PvVT (FVB/N-Tg) transgenic mice develop multifocal mammary tumor (from hyperplasia to metastatic) with a high incidence of metastasis (Mice were obtained from the NCI repository). This mouse model has been widely used for the correlation studies of human cancer (Guy et al., Moll. Cell. Biol. 12: 954-961, 1992). In addition, this onco-mouse model has been used to evaluate the effectiveness of potential drug therapies. Generally, due to aggressiveness of tumor growth and spread in this mouse-model, only a combination of chemo-drugs is effective in tumor growth inhibition. MMTV-PyVT mice were maintained until mammary tumor size reached to 6 mm, and then piperlongumine (2.4 mg/kg) or vehicle (DMSO) was given daily by i.p. for 13 days. Tumor size was measured every 4 days (See FIGS. 31 and 32).
We compared the anti-tumor activity of piperlongumine (SP2007) with taxol, a well known chemo drug, in the MMTV-PyVT tumor mouse model as described above (8 mice per group). When tumor sizes grew to ˜5-6 mm in diameter, SP2007 (2.4 mg/kg/day) or Taxol (Paclitaxel, 10 mg/kg/day) was administered intraperitoneally (I.P.) daily for two weeks. After two weeks treatment, mice were sacrificed, and mammary tumors excised and the tumor sizes measured. […] The size of the grossly dissected tumors was measured using the formula: mean diameter=(A+B)/2.

[5] = system: EJ bladder carcinoma and U2OS osteosarcoma cell lines; experiment: DNA damage in EJ bladder carcinoma and U2OS osteosarcoma cell lines; type: cell-based, human
Text: as §1

CC(/C=C/C(=O)NO)=C\[C@@H](C)C(=O)c1ccc(N(C)C)cc1 [TSA, reference compound]
total amount of p53 [1]: did not increase

CC(=O)O[C@H]1C(=O)[C@@]2(C)[C@H]([C@H](OC(=O)c3ccccc3)[C@]3(O)C[C@H](OC(=O)[C@H](O)[C@@H](NC(=O)c4ccccc4)c4ccccc4)C(C)=C1C3(C)C)[C@]1(OC(C)=O)CO[C@@H]1C[C@@H]2O [Taxol, reference compound]
killing of cancer cells after removal of the compound [2]: significantly weakened
phosphorylated gamma-H2AX and p53 [3]: results in the induction
secondary tumors ([4]; SP2007 2.4 mg/kg/day or Taxol 10 mg/kg/day i.p. for two weeks): moderate and secondary tumors appeared
deaths during treatment ([4]; Taxol 10 mg/kg/day i.p. daily for two weeks): two of the Taxol-treated mice died at day 10

COc1cccc2c1C(=O)c1c(O)c3c(c(O)c1C2=O)C[C@@](O)(C(=O)CO)C[C@@H]3O[C@H]1C[C@H](N)[C@H](O)[C@H](C)O1 [adrimycin, reference compound]
DNA damage (phosphorylated gamma-H2AX levels) [5]: results in the induction of DNA damage
